The values that follow come from patent US20100197745A1, “GAMMA-GLUTAMYL TRANSPEPTIDASE INHIBITORS AND METHODS OF USE” (priority 2008, published 2010).

In one data set the test system is 786-O cells. Kind of data set: Cytotoxicity assay (MTT, 72 hr) in dividing 786-O cells. Type of data set: cell-based. Here is the method:
786-O (ATCC CRL-1932), a human renal cell adenocarcinoma line, was plated in DMEM supplemented with 5% FBS and penicillin/streptomycin (50 U/mL, 50 ug/mL) at 10^3 cells per well in 96-well plates. The next day the medium was changed to fresh DMEM containing FBS, antibiotics and the test compound. Equivalent concentrations of DMSO were added to control wells. Cell viability was determined by the MTT assay 72 hr after the addition of the test compound (20).
A two-tailed t-test was used to detect significant differences between OU749 inhibition of human GGT and inhibition of GGT from other species.

Data set [1] concerns metastatic melanoma to the liver. The following applies: acivicin used to deplete tumor GSH in combination with aggressive therapy (ref. 4); cited from earlier work.
The target in data set [2] is T1, GGT isolated from human kidney (Homo sapiens, UniProt P19440).
T1 construct: GGT was isolated from human kidney; tissue National Disease Research Interchange, Philadelphia, PA; host or cells: human kidney, Triton X-100 extract of microsomes
Nature of the data set: GGT transpeptidation kinetic assay (GpNA / glycyl-glycine) with GGT isolated from human kidney. Type of data set: biochemical. The following applies: for Michaelis constant of the substrate (Kglygly, KGpNA): human kidney GGT. How it is done:
(§1) An assay method was developed to screen for inhibitors of GGT. The assays were conducted in 96-well plates. The final volume in each well was 100 μL. The assay buffer contained: 100 mM Na2HPO4 pH 7.4, with 3.2 mM KCI, 1.8 mM KH2PO4, and 27.5 mM NaCl. Each reaction contained 1 mM L-glutamic acid γ-4-nitroanilide HCI (GpNA) and 40 mM glycyl-glycine (Gly-Gly)(19). GGT is expressed on the cell surface and the assay was initiated by addition of 10^4 786-O cells (ATCC CRL-1932, a GGT-positive human renal cell adenocarcinoma line).
(§2) GGT was isolated from human kidney (National Disease Research Interchange, Philadelphia, PA), male Sprague-Dawley rat kidney and female Balb/c mouse kidney. Tissue was homogenized in 4 volumes of 25 mM Tris pH 7.5, containing 0.33 M sucrose, 0.2 mM EDTA, 1 μM leupeptin and 1.4 μg/ml aprotinin. A 9000 g supernatant was spun at 100,000 g for 1 h. The microsomal pellet was homogenized in 25 mM Tris pH 7.35, 0.5% Triton X-100, 1 μM leupeptin, 1.4 μg/ml aprotinin then centrifuged again at 100,000 g for 1 h. The supernatant was assayed for GGT activity, aliquoted, and stored at −80° C. until further use. All solutions were maintained at 4° C. throughout the isolation. The specific activities of GGT were 3.4, 7.4, and 1.5 units/mg protein for human, rat, and mouse preparations, respectively. Prior to use in the GGT assay, the enzyme was diluted in phosphate-buffered saline (PBS) containing 0.025% Triton X-100 and 0.19 m Units of enzyme were used per assay unless otherwise indicated.
(§3) The concentrations of the substrate GpNA and the acceptor Gly-Gly were varied as indicated. Purified GGT was added to initiate the assay. The reaction was monitored as described for the high throughput screening.
Initial velocity data were first analyzed graphically using double-reciprocal plots of initial velocities versus substrate concentration and suitable secondary plots.
Data for competitive and uncompetitive inhibition were fitted using Equations 1 and 2.

Data set [3] concerns the target T2, human GGT expressed in Pichia pastoris (Homo sapiens, UniProt P19440).
T2 construct: The soluble domain of human GGT (amino acids 28-569) was amplified by PCR; His6 (TEV protease-cleavable) (N, cleaved yes); made in house; host or cells: Pichia pastoris strain X-33 (pPICZαA, plasmid pMW-102), secreted
Kind of data set: GGT kinetic assay with purified human GGT expressed in Pichia pastoris. Type of data set: biochemical. The source says:
The soluble domain of human GGT (amino acids 28-569) was amplified by PCR. The forward primer introduced a EcoRI restriction site and a TEV protease-cleavable N-terminal His6 tag, while the reverse primer introduced a NotI restriction site after the stop codon of genomic GGT. The PCR product was digested with EcoRI and Not I and inserted into the corresponding sites of pPICZαA (Invitrogen), generating plasmid pMW-102. This construct was amplified in E. coli DH5α cells. The fidelity of the recombinant ORF was verified by sequencing (Oklahoma Medical Research Foundation's DNA Sequencing Core Facility, Oklahoma City, Okla.). The SacI-linearized plasmid, pMW-102, was purified and transformed into wild-type Pichia pastoris strain X-33, selected and induced as recommended by Invitrogen. Secreted, recombinant, His6-tagged, human GGT was collected from the media with a Ni-NTA column. The hexahistidine tag was cleaved with His6-tagged TEV protease. […]
The concentrations of the substrate GpNA and the acceptor Gly-Gly were varied as indicated. […] The reaction was monitored as described for the high throughput screening.
Initial velocity data were first analyzed graphically using double-reciprocal plots of initial velocities versus substrate concentration and suitable secondary plots. […]

The target of data set [4] is T3, GGT isolated from rat kidney (Rattus norvegicus, UniProt P07314).
T3 construct: male Sprague-Dawley rat kidney; from tissue; host or cells: male Sprague-Dawley rat kidney, Triton X-100 extract of microsomes
Kind of data set: Inhibition of GGT isolated from rat kidney. Type of data set: biochemical. The following applies: rat kidney GGT (FIG. 5A). How it is done:
as §2, §3

Another data set addresses T4, GGT from mouse kidney (Mus musculus, UniProt Q60928).
T4 construct: female Balb/c mouse kidney; from tissue; host or cells: female Balb/c mouse kidney, Triton X-100 extract of microsomes
Kind of data set: Inhibition of GGT isolated from mouse kidney. Type of data set: biochemical. The following applies: mouse kidney GGT (FIG. 5A). How it is done:
as §2, §3

The target in data set [5] is T5, GGT in 786-O and HK-2 cells (Homo sapiens, UniProt P19440).
T5 construct: GGT is expressed on the cell surface; CRL-2190 (HK-2); host or cells: 786-O human renal adenocarcinoma cells; HK-2 human proximal tubule cells
Nature of the data set: Inhibition of cell-surface GGT in human kidney cell lines. Type of data set: cell-based. The following applies: 786-O and HK-2 (FIG. 5B). Here is the method:
as §1
(§4) LLC-PKI (ATCC CRL 1392), a pig kidney cell line, NRK-52E (ATCC CRL-1571), a normal rat kidney cell line, LLC-MK2 (ATCC CCL-7), a normal kidney monkey cell line, and 786-O cells were grown in complete Dulbecco's Modified Eagle's Medium (DMEM) supplemented with 5% FBS (Hyclone, Logan, Utah), and penicillin/streptomycin (50 U/mL, 50 μg/mL) (Invitrogen, Carlsbad, Calif.). NIH/3T3 cells transfected with cDNA encoding human GGT were described previously and were grown in DMEM/F12 containing 200 μg/mL of G418 (6). HK-2 (ATCC CRL-2190), a human cell line derived from immortalized normal proximal tubule cells, were grown in keratinocyte serum-free media (K-SFM) from ATCC (Manassas, Va.). The cells were trypsinized off the plates and suspended in PBS for the GGT assay.

In another data set the target is T6, GGT in NRK-52E cells (Rattus norvegicus, UniProt P07314).
T6 construct: NRK-52E (ATCC CRL-1571), a normal rat kidney cell line; host or cells: NRK-52E rat kidney cells
Kind of data set: Inhibition of cell-surface GGT in rat kidney cell line. Type of data set: cell-based. The following applies: NRK-52E (FIG. 5B). Here is the method:
as §1, §4

The target in another data set is T7, GGT in LLC-PK1 cells (Sus scrofa, UniProt P20735).
T7 construct: LLC-PKI (ATCC CRL 1392), a pig kidney cell line; host or cells: LLC-PK1 pig kidney cells
Nature of the data set: Inhibition of cell-surface GGT in pig kidney cell line. Type of data set: cell-based. The following applies: LLC-PK1 (FIG. 5B). Here is the method: as §1, §4

The next data set has as its system GGT in LLC-MK2 cells. Kind of data set: Inhibition of cell-surface GGT in monkey kidney cell line. Type of data set: cell-based. The following applies: LLC-MK2 (FIG. 5B). How it is done:
as §1, §4

Data set [6] deals with T8, human GGT expressed in mouse NIH3T3 fibroblasts (Homo sapiens, UniProt P19440).
T8 construct: expressed in transfected cells; host or cells: NIH/3T3 mouse fibroblasts, G418-selected
Kind of data set: Inhibition of human GGT expressed in mouse NIH3T3 fibroblasts. Type of data set: cell-based. The following applies: NIH3T3 transfected with human GGT cDNA (FIG. 5B). Here is the method:
as §1, §4

For a further data set, the target named is T9, human kidney GGT (Homo sapiens, UniProt P19440).
T9 construct: GGT was isolated from human kidney; tissue National Disease Research Interchange, Philadelphia, PA; host or cells: human kidney, Triton X-100 extract of microsomes
Kind of data set: Glutathione degradation by human kidney GGT. Type of data set: biochemical. Here is the method:
(§5) An incubation mixture contained 1 mM glutathione, 40 mM glycyl-glycine, and inhibitor in the GGT assay buffer. Reactions were initiated with the addition of 1.9 mU of GGT and incubated at 37° C. The final volume of the reaction was 100 μL. Aliquots of the reaction mixture were removed at the specified time points, immediately acidified with an equal volume of cold 4.31% 5-sulfosalicylic acid, and maintained at 4° C. until glutathione concentration was determined by the method of Tietze (21).

In a further data set the target is T10, GGT from rat kidney (Rattus norvegicus, UniProt P07314).
T10 construct: male Sprague-Dawley rat kidney; from tissue; host or cells: male Sprague-Dawley rat kidney, Triton X-100 extract of microsomes
Nature of the data set: Glutathione degradation by rat kidney GGT. Type of data set: biochemical. The following applies: 1 mM glutathione, 40 mM glycylglycine (FIG. 6B). How it is done:
as §5

The mark [7] stands for this setting: appKi obtained by varying GpNA, glygly fixed at 40 mM, uncompetitive, read-out: Inhibition of Transpeptidation (Alpha Ki).

“Also recorded” adds a separate entry of the source. Read-outs that look alike come from different tables or passages of the source. Residues, ends and D or L forms follow the SMILES beside them.

T9 sequence (P19440 1-380 limits assumed): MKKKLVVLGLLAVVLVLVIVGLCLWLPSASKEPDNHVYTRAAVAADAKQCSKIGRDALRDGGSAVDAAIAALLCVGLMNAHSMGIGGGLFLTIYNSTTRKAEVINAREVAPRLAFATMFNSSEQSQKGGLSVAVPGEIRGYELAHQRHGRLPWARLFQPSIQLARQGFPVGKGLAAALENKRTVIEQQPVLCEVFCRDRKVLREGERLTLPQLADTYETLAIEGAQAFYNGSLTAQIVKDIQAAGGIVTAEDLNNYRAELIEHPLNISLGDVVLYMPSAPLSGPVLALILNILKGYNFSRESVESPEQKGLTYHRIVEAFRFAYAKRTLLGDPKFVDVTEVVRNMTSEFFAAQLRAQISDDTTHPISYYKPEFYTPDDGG
T9 sequence (P19440 381-569 limits assumed): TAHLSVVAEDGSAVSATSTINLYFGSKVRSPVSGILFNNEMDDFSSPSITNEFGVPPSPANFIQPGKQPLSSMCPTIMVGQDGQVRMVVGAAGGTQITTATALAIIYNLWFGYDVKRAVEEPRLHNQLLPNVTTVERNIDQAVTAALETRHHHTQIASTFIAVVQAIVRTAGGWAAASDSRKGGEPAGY
T1 sequence (P19440 1-380 limits assumed): as the sequence (P19440 1-380 limits assumed) above
T1 sequence (P19440 381-569 limits assumed): as the sequence (P19440 381-569 limits assumed) above
T10 sequence (P07314 whole entry): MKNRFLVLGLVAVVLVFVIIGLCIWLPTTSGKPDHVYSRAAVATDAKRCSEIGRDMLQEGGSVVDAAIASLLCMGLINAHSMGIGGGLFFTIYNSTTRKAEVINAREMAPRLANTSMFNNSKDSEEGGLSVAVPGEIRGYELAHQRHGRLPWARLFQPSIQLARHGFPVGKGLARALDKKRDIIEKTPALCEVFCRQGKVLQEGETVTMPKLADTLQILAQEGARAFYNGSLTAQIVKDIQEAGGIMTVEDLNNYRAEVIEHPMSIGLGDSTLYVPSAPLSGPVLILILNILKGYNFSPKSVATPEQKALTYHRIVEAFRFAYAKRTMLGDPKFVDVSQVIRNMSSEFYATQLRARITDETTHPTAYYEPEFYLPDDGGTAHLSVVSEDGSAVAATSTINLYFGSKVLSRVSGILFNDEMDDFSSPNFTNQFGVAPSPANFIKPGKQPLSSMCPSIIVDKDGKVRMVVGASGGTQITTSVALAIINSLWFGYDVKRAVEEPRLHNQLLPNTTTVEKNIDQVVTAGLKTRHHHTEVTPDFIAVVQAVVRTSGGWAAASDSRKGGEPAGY
T2 sequence (P19440 28-569): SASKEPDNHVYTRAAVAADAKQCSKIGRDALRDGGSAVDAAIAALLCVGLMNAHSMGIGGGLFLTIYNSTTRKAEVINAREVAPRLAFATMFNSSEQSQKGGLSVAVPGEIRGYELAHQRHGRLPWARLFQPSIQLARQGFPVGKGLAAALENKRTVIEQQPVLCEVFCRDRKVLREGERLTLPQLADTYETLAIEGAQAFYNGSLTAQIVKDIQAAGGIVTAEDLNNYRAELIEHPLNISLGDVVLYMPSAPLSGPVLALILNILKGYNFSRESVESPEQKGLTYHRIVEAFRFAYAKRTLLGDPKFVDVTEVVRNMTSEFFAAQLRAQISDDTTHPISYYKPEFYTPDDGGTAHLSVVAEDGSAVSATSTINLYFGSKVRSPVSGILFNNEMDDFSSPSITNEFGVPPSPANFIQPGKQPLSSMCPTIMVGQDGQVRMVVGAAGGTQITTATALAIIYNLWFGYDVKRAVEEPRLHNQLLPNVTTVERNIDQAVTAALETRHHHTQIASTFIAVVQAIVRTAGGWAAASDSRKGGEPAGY
T6 sequence (P07314 whole entry): as the sequence (P07314 whole entry) above
T3 sequence (P07314 whole entry): as above
T8 sequence (P19440 whole entry): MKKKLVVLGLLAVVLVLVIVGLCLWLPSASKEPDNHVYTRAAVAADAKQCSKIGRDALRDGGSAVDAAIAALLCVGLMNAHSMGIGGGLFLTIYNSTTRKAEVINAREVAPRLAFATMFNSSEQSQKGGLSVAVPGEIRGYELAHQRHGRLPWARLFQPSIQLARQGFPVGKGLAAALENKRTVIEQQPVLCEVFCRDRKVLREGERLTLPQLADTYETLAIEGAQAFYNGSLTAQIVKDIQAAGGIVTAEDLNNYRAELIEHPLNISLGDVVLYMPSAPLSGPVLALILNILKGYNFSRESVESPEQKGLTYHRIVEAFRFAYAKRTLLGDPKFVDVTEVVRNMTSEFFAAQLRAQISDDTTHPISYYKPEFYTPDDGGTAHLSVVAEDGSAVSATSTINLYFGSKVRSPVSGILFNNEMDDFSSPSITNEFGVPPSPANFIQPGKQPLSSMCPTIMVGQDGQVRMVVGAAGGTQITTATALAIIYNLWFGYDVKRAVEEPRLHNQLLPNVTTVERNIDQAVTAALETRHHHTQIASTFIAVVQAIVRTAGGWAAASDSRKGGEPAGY
T5 sequence (P19440 whole entry): as above

In turn, `N[C@H](C(=O)O)[C@@H]1CC(Cl)=NO1` [Acivicin, acivicin, reference compound] came in with an LD50 in the data set with 786-O cells (human, 72 h) of 0.81 µM. For the same compound, in [1], the “complete cure of metastatic melanoma to the liver, share of test animals” value is recorded as 90%.
Take `COc1ccc(S(=O)(=O)Nc2nnc(Cc3ccc(OC)c(OC)c3)s2)cc1` [Compound 9]: in [2] (setting [7]), the Ki stood at 1110 µM.
Regarding `NCC(=O)NCC(=O)O` [glygly, glycyl-glycine, reference compound] (H-Gly-Gly-OH), the “Michaelis constant of the substrate (Kglygly, KGpNA)” value in data set [2] came out at 11.4 ± 1.2 mM.
Turning to `COc1ccc(Cc2nnc(NS(=O)(=O)c3ccc([N+](=O)[O-])cc3)s2)cc1` [Compound 7], the Ki in [2] (setting [7]) is 114 ± 8.4 µM.
Regarding `N[C@@H](CCC(=O)Nc1ccc([N+](=O)[O-])cc1)C(=O)O` [GpNA, L-glutamic acid γ-4-nitroanilide HCI, reference compound], the “Michaelis constant of the substrate (Kglygly, KGpNA)” value in data set [2] worked out at 1.07 ± 0.04 mM.
`COc1ccc(Cc2nnc(NS(=O)(=O)c3ccccc3)s2)cc1` [Compound 3, N-[5-(4-methoxybenzyl)-1,3,4-thiadiazol-2-yl]benzenesulfonamide]: the “inhibition of GGT isolated from human kidney” value in data set [2] (0-125 μM, 40 mM glycylglycine (FIG. 3)) is reported as “inhibited GGT isolated from human kidney in a dose-dependent manner”. In addition, in data set [2] (GpNA varied, glygly 40 mM), the “type of inhibition with respect to GpNA” value is given as “uncompetitive”. Besides, the Ki in data set [2] (setting [7]) is 73.8 ± 2.5 µM; in data set [2] (fit of data of FIGS. 4A-D to the equation for noncompetitive inhibition, read-out: Ki binding to the E form of the enzyme), above 200 µM; in [2] (glygly varied, GpNA maintained at 3 mM, read-out: Ki, competitive with respect to glygly (intrinsic value)), 17.6 ± 3.8 µM; in data set [3] (GpNA varied, 40 mM glycylglycine, read-out: appKi obtained varying GpNA), 58.2 ± 1.6 µM; in data set [3] (glygly varied, 3 mM GpNA, read-out: appKi as a competitive inhibitor of glygly), 25 ± 2 µM. In data set [2] (glygly varied, GpNA 3 mM), the “type of inhibition with respect to glygly” value is recorded as “competitive”. The “weaker binding to the E form” value in [2] (relative to binding in the presence of the γ-glutamyl moiety) was above 10 fold. The “fold less toxic than acivicin” value was “more than 150 fold” in the data set with 786-O cells (786-O cells in log growth) and 150 fold in the data set with 786-O cells (786-O cells in log growth, listed as compound 3). Further, the “toxicity relative to acivicin” value in the data set on 786-O cells (786-O cells in log growth) is listed as “at least an order of magnitude less toxic than acivicin”. In addition, in the data set on 786-O cells (dividing 786-O cells, 3 days with test compound, MTT), the LD50 is 128 µM. Besides, the results for the “fold less potent than against GGT isolated from human kidney” value (in data set [4]; on GGT from mouse kidney) were 7 fold and 10 fold, respectively. The “inhibition of GGT in human kidney cell lines” value in [5] is given as “dose-dependent inhibition”. For the same compound, the “inhibition of GGT in rat kidney cell line” value at GGT in NRK-52E cells is “only weakly inhibited”. Further, at GGT in LLC-PK1 cells, the “inhibition of GGT in pig kidney cell line” value is given as “not inhibited”. Besides, the “inhibition of GGT in monkey kidney cell line” value in the data set with GGT in LLC-MK2 cells is “only weakly inhibited”. In addition, the “inhibition of human GGT expressed in mouse cells” value in data set [6] is given as “inhibited by compound 3 to the same extent as human GGT expressed in other human cells”. For the same compound, the “inhibition of cleavage of glutathione” value against human kidney GGT (1 mM glutathione, 40 mM glycylglycine, 62.5-500 uM compound (FIG. 6A)) is on record as “inhibited the cleavage of glutathione in a dose-dependent manner; also recorded: inhibited glutathione breakdown by human GGT”. Moreover, the “inhibition of cleavage of oxidized glutathione (GSSG)” value against human kidney GGT (human GGT, data not shown) is “inhibited the cleavage of oxidized glutathione”. Also, the “inhibition of degradation of glutathione” value at GGT from rat kidney is listed as “unable to inhibit; also recorded: did not inhibit”.
`O=S(=O)(Nc1nnc(Cc2ccccc2)s1)c1ccc(Cl)cc1` [Compound 4]: the Ki in data set [2] (setting [7]) was found to be 75.9 ± 1.7 µM.
